{
  "source": "patent US20200000714A1",
  "about": "“OPHTHALMIC COMPOSITION COMPRISING PVP-I” (MEDIVIS S.R.L., priority 2016, published 2020)",
  "origin": "cited, not measured here",
  "note": "Like-named read-outs stand apart in the source and are kept apart here.",
  "data": [
    {"substance": "Povidone-iodine [PVP-I]", "values": [
      {"measurement": "free molecular iodine I2 concentration", "setting": "10% solutions of PVP-I", "value": "about 1 ppm"},
      {"measurement": "free molecular iodine I2 concentration", "setting": "solutions with PVP-I concentration of 0.1%", "value": "about 20 ppm"}
    ]}
  ]
}
